Laboratory results from patent US20090124608A1, “CB2 Receptor Modulators In Neurodegenerative Diseases And Applications Of The Same” (priority 2006, published 2009).
Entries after “also recorded” stand apart in the source; their conditions may differ.

Assays:
CB1 receptors [1] = conditions: Yao et al. 2006; read-out: affinity for CB1 receptors; cited from earlier work
G93A-SOD1 mice [2] = test: Motor function test (clinging to perpendicular wire mesh screen for 60 seconds) in G93A mice; assay type: in vivo, mouse
Experimental: Beginning on the first day of observing symptoms, mice were tested for motor function biweekly until sacrifice. Motor function testing was initiated by gently placing animals on a horizontal wire mesh screen. The screen was slowly rotated to be perpendicular to the ground (90°). The duration that mice were able to hang onto the perpendicular wire mesh up to a maximum of 120 seconds was recorded. Because vehicle treated mice on average lost the ability to cling to the wire mesh for 60 seconds in the middle of their survival curve, this “all or none” response was utilized to compare motor function across all treatment groups. Kaplan-Meier time-to-event statistics were employed to analyze the data. The event was defined as the number of days after symptom onset that each individual animal was no longer able to cling to the wire mesh screen for 60 seconds.
Testing twice a week for the duration of the study provided a quantifiable decline during disease progression. Mice were placed on a horizontal wire mesh screen that was gently inverted to 90°. Kaplan-Meier time-to-event curves were used to analyze the data. The event was defined as the day each animal was no longer able to cling to the perpendicular screen for 60 seconds. […] The disparity between male and female motor function was paralleled by the interval between survival for the genders. Male mice survived an average of 39.6±2.0 (FIG. 6a) days past the onset of symptoms, while females lived 9 days longer than males (p<0.0018*, FIG. 6b). For males and females, loss of motor function preceded death by 20.5 (p<0.0002***) and 19.0 days (p<0.0028**), respectively.

CB1 and CB2 receptors = test: [35S]GTPγS binding with selective agonists in mouse spinal cord membranes; assay type: biochemical; conditions: data not shown
Experimental: (§1) [^35S]GTPγS binding assays were performed as described previously (Prather et al. 2000a) in a buffer containing 20 mM Hepes, 100 mM NaCl, and 10 mM MgCl2 at pH 7.4. Each binding reaction contained 10 μg of spinal cord membrane protein, the presence or absence of cannabinoid ligands (see following), plus 0.1 nM [^35S]GTPγS (1250 Ci/mmol, Perkin Elmer Life and Analytical Sciences) and […] of GDP to suppress basal G-protein activation. Reactions were incubated for 2 hrs at 30 °C. Non-specific binding was defined by binding observed in the presence of 10 μM of non-radioactive GTPγS. The reaction was terminated by rapid vacuum filtration through glass fiber filters followed by two washes with ice-cold assay buffer. 4 mL of scintiverse® (Fisher Scientific) was added to the filters and radioactivity quantified by scintillation counting.
We initially attempted to compare CB 1 and CB2 receptor activation of G-proteins between WT-OE and G93A spinal cord membranes by conducting [^35S]GTPγS binding assays in the presence of selective agonists.

[3] = Water solubility and dissolution in vehicles
cannabinoid receptors = test: GTPγS binding in end stage spinal cord homogenates from G93A-SOD1 mice, separated by gender; assay type: biochemical, mouse; conditions: for 2-AG stimulated G-protein activation remaining on co-incubation with CB2 ligand: 2-AG 3 μM; for 2-AG stimulated G-protein activation remaining on co-incubation with CB2 ligand / HU-210 stimulated G-protein activation remaining on co-incubation with CB2 ligand: ligand 1 μM; for HU-210 stimulated G-protein activation remaining on co-incubation with CB2 ligand: HU-210 100 nM
Experimental: as §1
Harvested spinal cords from the vehicle treated control groups at the end-stage of their disease were separated by gender and used to conduct GTP7S binding experiments, which measure the capability of a ligand to promote or suppress G-protein activation.
It was next determined if the selective CB2 ligands antagonize G-protein activation produced by an endocannabinoid such as 2-AG as well.

CB2 receptors = CB2 receptors (Homo sapiens, UniProt P34972); conditions: Yao et al. 2006, cited from earlier work
Chain of CB2 receptors (P34972 whole entry): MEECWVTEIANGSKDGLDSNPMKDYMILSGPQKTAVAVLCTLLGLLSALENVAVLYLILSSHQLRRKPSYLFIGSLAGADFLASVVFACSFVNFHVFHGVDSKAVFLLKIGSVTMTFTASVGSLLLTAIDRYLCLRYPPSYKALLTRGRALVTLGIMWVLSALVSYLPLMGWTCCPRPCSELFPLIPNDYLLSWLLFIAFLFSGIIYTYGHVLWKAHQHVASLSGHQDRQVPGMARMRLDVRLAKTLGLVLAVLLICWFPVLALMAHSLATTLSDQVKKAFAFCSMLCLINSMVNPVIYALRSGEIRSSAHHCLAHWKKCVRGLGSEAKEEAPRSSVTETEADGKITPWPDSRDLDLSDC

G93A-SOD1 mice [4] = test: Survival of G93A mice, daily i.p. treatment initiated at symptom onset; assay type: in vivo, mouse; conditions: for survival interval (symptom onset to sacrifice): vehicle 23.7+/−1.7 days; for Survival Interval Ratio (SIR) / Total Life-Span Ratio (TLR): G93A mice, i.p. daily from onset
Description: Hemizygous transgenic male mice with the G93A mutation of the human SOD1 gene (G1H/1) mutation (B6SJL-TgN (SOD1-G93A) 1 Gur) were obtained from Jackson Laboratories and were bred locally with female B6SJL mice (Jackson Laboratory), according to the protocol obtained from the vendor. To decrease the inherent variability in disease onset and survival with these mice, littermate transgenic males (rather than random males from several different litters) were selected to sire subsequent generations of mice.
Determination of symptom onset, randomization and drug treatment of G93A mice. Symptom onset was assessed by blinded observation of changes in hind limb gait; these changes are related to the mouse's inability to support its weight on its hind limbs. At onset, mice initially place their weight on the toes and then quickly fall to full foot placement (as opposed to healthy mice which walk and run on the hind toes); this “toe-to-heel” walking pattern produces an asymmetric gait between hind and fore limbs and a characteristic “wobbling” gait. Mouse groups were randomized based on symptom onset and alternately placed in control and treated groups, e.g., the first mouse to develop hind limb weakness was placed in the control group, the second was injected with test compound and placed in the treatment group, and so on. […] By definition, the onset administration paradigm employed was focused on what we term the “survival interval”—namely the time from onset to end-stage sacrifice.
Mice were sacrificed when any of the following criteria were met: (1) inability to right themselves within 30 seconds when placed on their sides; (2) inability to eat or drink, or move toward food and water placed in low-rimmed dishes on cage floor; (3) loss of more than 10% of total body weight in 24 hours; (4) gross loss of grooming behavior; or (5) labored breathing. Criteria for death were confirmed by a second investigator who is blinded to the group identity of each mouse. The age of symptom onset was subtracted from the age at death for each mouse, and a mean survival interval was calculated for each group. By calculating the ratio of the survival interval of treated groups to the survival interval of untreated littermate controls, a X-fold increase in survival was readily determined.
The effect of chronic administration of cannabinoids on the survival of G93A mice was next examined (FIG. 4). […] The number of days between symptom onset and animal sacrifice was measured (e.g., survival interval). In humans, this is analogous to the time between diagnosis of ALS and death, ranging from 2-5 years.

CB1/CB2 receptors [5] = test: [35S]GTPγS binding, selective antagonism of HU-210, G93A spinal cord membranes; assay type: biochemical, mouse; conditions: antagonist 3 μM
CB1 receptors [6] = biological target: T1, CB1 receptors (Mus musculus, UniProt P47746); test: Antagonism of HU-210 G-protein activation in mouse cortex membranes; assay type: biochemical; conditions: cortical membranes, HU-210 100 nM
T1 construct: employing membranes prepared from mouse cortex as a relatively pure source of CB1 receptors; from tissue; host or cells: mouse cortex
T1 sequence (P47746 whole entry): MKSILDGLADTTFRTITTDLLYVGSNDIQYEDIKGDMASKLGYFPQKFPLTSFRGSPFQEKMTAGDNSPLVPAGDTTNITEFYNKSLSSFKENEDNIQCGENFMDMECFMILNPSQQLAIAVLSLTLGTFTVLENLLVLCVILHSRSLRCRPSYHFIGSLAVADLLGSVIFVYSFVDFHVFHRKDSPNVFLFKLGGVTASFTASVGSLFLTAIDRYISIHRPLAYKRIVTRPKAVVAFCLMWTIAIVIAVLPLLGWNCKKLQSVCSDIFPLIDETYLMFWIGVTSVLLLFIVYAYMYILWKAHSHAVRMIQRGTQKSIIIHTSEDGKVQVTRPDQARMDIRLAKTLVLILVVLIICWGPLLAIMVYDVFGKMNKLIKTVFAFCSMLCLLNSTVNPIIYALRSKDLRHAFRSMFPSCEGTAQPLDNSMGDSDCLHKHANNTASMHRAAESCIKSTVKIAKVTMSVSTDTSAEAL
Description: This was accomplished by antagonism experiments employing membranes prepared from mouse cortex as a relatively pure source of CB1 receptors.

CB1/CB2 receptors [7] = test: [35S]GTPγS binding, selective antagonism of HU-210, WT-OE spinal cord membranes; assay type: biochemical, mouse; conditions: antagonist 3 μM
G93A-SOD1 mice [8] = conditions: administration after the onset of symptoms; Raman et al. 2004, Weydt et al. 2005; cited from earlier work
[9] = daily injections initiated at symptom onset
[10] = G93A spinal cord membranes, HU-210 100 nM
[11] = WT-OE spinal cord membranes, HU-210 100 nM

CN1CCCCC1Cn1cc(C(=O)c2cc([N+](=O)[O-])ccc2I)c2ccccc21 (racemic) [AM-1241, (R,S)-(+)-(2-Iodo-5-nitrobenzoyl)-[1-(1-methyl-piperidin-2-ylmethyl-1H-indole-3-yl]methanone]
Ki (CB1 receptors [1]): 580 nM | improvement in motor function versus vehicle, females (G93A-SOD1 mice [2]; female G93A mice, time to loss of ability to cling 60 seconds): 37% | interval between mean loss of motor function and death, females (G93A-SOD1 mice [2]; female mice, vehicle 19.0 days): 9.0 days | improvement in motor function versus vehicle, males (G93A-SOD1 mice [2]; male G93A mice, time to loss of ability to cling 60 seconds): 81% | loss of motor function, days after observation of symptoms (G93A-SOD1 mice [2]; male mice, vehicle 19.1±3.9 days): 34.5 ± 5.5 days | interval between mean loss of motor function and death, males (G93A-SOD1 mice [2]; male mice, vehicle 20.5 days): 12.8 days | G-protein activation by selective agonist (CB1 and CB2 receptors): failed attempts to demonstrate consistent, measurable G-protein activation; also recorded: unable to demonstrate consistent, measurable G-protein activation | water solubility [3]: very poor water solubility | stable dissolution in tested vehicles ([3]; ethanol/water, glycerol, polyethylene glycol, high purity olive oil tested): achieved only with olive oil | 2-AG stimulated G-protein activation remaining on co-incubation with CB2 ligand (cannabinoid receptors; female homogenate): 11.62±2.2 fmole/mg protein | HU-210 stimulated G-protein activation remaining on co-incubation with CB2 ligand (cannabinoid receptors; female homogenates): 19.89±1.5 fmole/mg protein | 2-AG stimulated G-protein activation remaining on co-incubation with CB2 ligand (cannabinoid receptors; male homogenate): 9.09±52.1 fmole/mg protein | HU-210 stimulated G-protein activation remaining on co-incubation with CB2 ligand (cannabinoid receptors; male homogenates): 9.73±2.5 fmole/mg protein | effect on G-protein activation (cannabinoid receptors; male spinal cord): relatively small decrease in G-protein activation | higher affinity for CB2 relative to CB1 (CB2 receptors): > 80 fold | Ki (CB2 receptors; read-out: affinity for CB2 receptors): 7 nM | increase in survival interval versus vehicle (G93A-SOD1 mice [4]; 0.3 mg/kg daily i.p.): 9.7 days | survival interval (symptom onset to sacrifice) (G93A-SOD1 mice [4]; 0.3 mg/kg daily i.p.): 33.4 ± 2.2 days | increase in survival interval versus vehicle (G93A-SOD1 mice [4]; 3 mg/kg daily i.p.): 13.2 days | survival interval (symptom onset to sacrifice) (G93A-SOD1 mice [4]; 3 mg/kg daily i.p.): 36.9 ± 2.8 days | Survival Interval Ratio (SIR) (G93A-SOD1 mice [4]; 0.3 mg/kg): 1.41 | Total Life-Span Ratio (TLR) (G93A-SOD1 mice [4]; 0.3 mg/kg): 1.07 | Survival Interval Ratio (SIR) (G93A-SOD1 mice [4]; 3.0 mg/kg): 1.56 | Total Life-Span Ratio (TLR) (G93A-SOD1 mice [4]; 3.0 mg/kg): 1.11 | extension of total life-span versus controls (G93A-SOD1 mice [4]; [9]): 11% | living longer after symptom onset than controls (survival interval increase) (G93A-SOD1 mice [4]; [9]): 56% | survival improvement versus vehicle, females (G93A-SOD1 mice [4]; female G93A mice, 3 mg/kg for AM-1241 and AM630, JTE-907 dose not given): did not live significantly longer | survival improvement versus vehicle, males (G93A-SOD1 mice [4]; male G93A mice, 3 mg/kg for AM-1241 and AM630, JTE-907 dose not given): 19% | effect on survival of G93A-SOD1 mice (G93A-SOD1 mice [4]; treatment initiated at symptom onset): pronounced increase in survival

COc1ccc2c(c1)c(CCN1CCOCC1)c(C)n2C(=O)c1cccc(Cl)c1Cl [GW-405833, (2,3-dichloro-phenyl)-[5-methoxy-2-methyl-3-(2-morpholin-4-yl-ethyl)-indol-1-yl]-methanone]
G-protein activation by selective agonist (CB1 and CB2 receptors): failed attempts to demonstrate consistent, measurable G-protein activation; also recorded: unable to demonstrate consistent, measurable G-protein activation

CC1=CC[C@@H]2[C@@H](C1)c1ccc(CC#CCCCNS(C)(=O)=O)cc1OC2(C)C [O-2050, (6aR,1OaR)-3-(1-Methanesulfonylamino-4-hexyn-6-yl)-6a,7,10,10a-tetrahydro-6,6,9-trimethyl-6H-dibenzo[b,d]pyran]
net reduction of HU-210-induced G-protein activation (CB1/CB2 receptors [5]; G93A membranes): 25.9 fmole/mg protein | % blockade of HU-210-induced G-protein activation (CB1/CB2 receptors [5]; [10]): 45% | HU-210 stimulated [35S]GTPγS binding remaining on co-incubation with antagonist (CB1/CB2 receptors [5]; [10]): 31.5±4.4 fmole/mg protein | % blockade of HU-210-induced G-protein activation (CB1/CB2 receptors [5]; G93A spinal cord membranes, HU-210 100 nM, listed as 0-2050): 46% | minimal concentration required to completely block HU-210-mediated G-protein activation by CB1 receptors (CB1 receptors [6]): 3 μM | net reduction of HU-210-induced G-protein activation (CB1/CB2 receptors [7]; WT-OE membranes): 28.3 fmoles/mg protein | % blockade of HU-210-induced G-protein activation (CB1/CB2 receptors [7]; [11]): 92% | HU-210 stimulated [35S]GTPγS binding remaining on co-incubation with antagonist (CB1/CB2 receptors [7]; [11]): 2.5±0.8 fmole/mg protein

CCCCCc1cc(O)c2c(c1)OC(C)(C)c1ccc(C)cc1-2 [cannabinol]
delaying motor impairment and prolonging survival in G93A mice (G93A-SOD1 mice [8]): minimally successful

CCCCCc1cc(O)c2c(c1)OC(C)(C)[C@@H]1CCC(C)=C[C@@H]21 [Δ^9-THC, Δ^9-Tetrahydrocannabinol]
delaying motor impairment and prolonging survival in G93A mice (G93A-SOD1 mice [8]): minimally successful
